Like-named read-outs stand apart in the source and are kept apart here.
What was measured:
M3 = M3 (Homo sapiens, UniProt P20309); conditions: Data from Poster, CNS Summit (2013); cited from earlier work
M4 = target: T1, M4 (Homo sapiens, UniProt P08173); conditions: Data from Poster, CNS Summit (2013); cited from earlier work
T1 sequence (P08173 1-479): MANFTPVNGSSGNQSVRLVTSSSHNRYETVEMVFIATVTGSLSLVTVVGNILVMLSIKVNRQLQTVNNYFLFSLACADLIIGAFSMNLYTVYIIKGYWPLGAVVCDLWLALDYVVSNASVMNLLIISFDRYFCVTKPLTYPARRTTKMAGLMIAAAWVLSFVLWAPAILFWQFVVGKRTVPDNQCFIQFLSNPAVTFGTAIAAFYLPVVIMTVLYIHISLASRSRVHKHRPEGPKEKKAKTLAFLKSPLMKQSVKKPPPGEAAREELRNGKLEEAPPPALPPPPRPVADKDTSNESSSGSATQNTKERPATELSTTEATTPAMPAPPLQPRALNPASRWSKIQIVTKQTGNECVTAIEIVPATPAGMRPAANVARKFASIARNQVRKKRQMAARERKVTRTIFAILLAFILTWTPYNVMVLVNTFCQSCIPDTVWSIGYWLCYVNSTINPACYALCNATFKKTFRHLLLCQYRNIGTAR

Sigma1 [1] = target: T2, Sigma1 (Homo sapiens, UniProt Q99720); conditions: Data from Poster, CNS Summit (2013); cited from earlier work
M1 [2] = target: T3, M1 (Homo sapiens, UniProt P11229); conditions: Data from Poster, CNS Summit (2013); cited from earlier work
T3 sequence (P11229 1-460): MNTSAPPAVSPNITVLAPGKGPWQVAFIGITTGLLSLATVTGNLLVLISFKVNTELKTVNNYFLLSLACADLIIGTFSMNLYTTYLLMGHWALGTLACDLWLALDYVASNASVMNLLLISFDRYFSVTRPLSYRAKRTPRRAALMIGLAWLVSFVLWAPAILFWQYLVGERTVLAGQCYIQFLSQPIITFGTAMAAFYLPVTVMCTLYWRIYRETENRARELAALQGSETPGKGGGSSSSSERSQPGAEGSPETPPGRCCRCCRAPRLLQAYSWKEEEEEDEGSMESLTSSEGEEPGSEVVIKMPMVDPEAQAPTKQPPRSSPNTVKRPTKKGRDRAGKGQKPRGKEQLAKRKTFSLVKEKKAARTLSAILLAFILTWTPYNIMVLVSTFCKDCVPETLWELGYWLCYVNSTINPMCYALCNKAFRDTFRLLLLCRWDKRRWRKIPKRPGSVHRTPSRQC

M2 [3] = target: T4, M2 (Homo sapiens, UniProt P08172); conditions: Data from Poster, CNS Summit (2013); cited from earlier work
T4 sequence (P08172 1-466): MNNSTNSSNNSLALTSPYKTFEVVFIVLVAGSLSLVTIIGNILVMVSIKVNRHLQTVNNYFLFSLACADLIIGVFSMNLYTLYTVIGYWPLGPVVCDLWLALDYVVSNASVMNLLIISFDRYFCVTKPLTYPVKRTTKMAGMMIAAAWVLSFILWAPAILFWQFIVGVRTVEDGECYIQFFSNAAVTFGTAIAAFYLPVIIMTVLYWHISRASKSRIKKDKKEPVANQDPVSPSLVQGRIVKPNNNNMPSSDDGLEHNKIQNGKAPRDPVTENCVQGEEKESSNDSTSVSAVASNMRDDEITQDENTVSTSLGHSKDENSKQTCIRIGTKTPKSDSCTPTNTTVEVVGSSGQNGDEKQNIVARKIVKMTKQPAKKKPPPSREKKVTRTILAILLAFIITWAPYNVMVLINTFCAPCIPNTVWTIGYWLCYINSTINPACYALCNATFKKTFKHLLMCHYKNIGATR

M1 [4] = target: T3, M1; assay: Muscarinic M1 receptor Ki determination (NIMH PDSP); type: binding
Description: (§1) The compounds from the above Examples were tested for Sigma-1 and muscarinic M1-M5) activities. Ki determinations were generously provided by the National Institute of Mental Health's Psychoactive Drug Screening Program (PDSP), Contract #HHSN-271-2013-00017-C (NIMH PDSP). The NIMH PDSP is directed by Bryan L. Roth M D, PhD at the University of North Carolina at Chapel Hill and Project Officer Jamie Driscoll at NIMH, Bethesda Md., USA. Procedures employed by the PDSP are described in the NIMH PDSP Assay Protocol Book, Version II and follow published literature protocols.

M2 [5] = target: T4, M2; assay: Muscarinic M2 receptor Ki determination (NIMH PDSP); type: binding
Description: as §1

M5 = target: T5, M5 (Homo sapiens, UniProt P08912); assay: Muscarinic M5 receptor Ki determination (NIMH PDSP); type: binding
T5 sequence (P08912 1-532): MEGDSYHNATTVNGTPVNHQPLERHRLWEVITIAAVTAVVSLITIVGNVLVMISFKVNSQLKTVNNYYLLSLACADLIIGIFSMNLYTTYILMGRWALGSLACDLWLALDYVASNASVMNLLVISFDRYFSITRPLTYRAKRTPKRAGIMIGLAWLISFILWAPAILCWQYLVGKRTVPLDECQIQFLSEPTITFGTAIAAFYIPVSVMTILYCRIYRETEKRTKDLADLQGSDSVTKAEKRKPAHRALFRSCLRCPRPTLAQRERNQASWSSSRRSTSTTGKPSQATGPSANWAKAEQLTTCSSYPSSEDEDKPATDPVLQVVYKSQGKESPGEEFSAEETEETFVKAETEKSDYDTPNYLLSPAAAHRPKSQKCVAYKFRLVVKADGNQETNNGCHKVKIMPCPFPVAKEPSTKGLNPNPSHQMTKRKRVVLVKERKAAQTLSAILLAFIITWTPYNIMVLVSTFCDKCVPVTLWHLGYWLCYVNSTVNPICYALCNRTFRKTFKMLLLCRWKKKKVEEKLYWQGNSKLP
Description: as §1

Sigma1 [6] = target: T2, Sigma1; assay: Sigma-1 receptor Ki determination (NIMH PDSP); type: binding
Description: as §1

T2 sequence (Q99720 whole entry): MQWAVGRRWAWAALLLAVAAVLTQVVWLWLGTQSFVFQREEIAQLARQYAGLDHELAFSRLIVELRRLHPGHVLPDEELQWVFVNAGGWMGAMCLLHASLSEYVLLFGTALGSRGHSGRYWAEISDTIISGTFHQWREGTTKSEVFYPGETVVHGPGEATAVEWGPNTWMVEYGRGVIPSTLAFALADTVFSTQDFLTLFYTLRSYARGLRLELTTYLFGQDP
M3, sequence (P20309 whole entry): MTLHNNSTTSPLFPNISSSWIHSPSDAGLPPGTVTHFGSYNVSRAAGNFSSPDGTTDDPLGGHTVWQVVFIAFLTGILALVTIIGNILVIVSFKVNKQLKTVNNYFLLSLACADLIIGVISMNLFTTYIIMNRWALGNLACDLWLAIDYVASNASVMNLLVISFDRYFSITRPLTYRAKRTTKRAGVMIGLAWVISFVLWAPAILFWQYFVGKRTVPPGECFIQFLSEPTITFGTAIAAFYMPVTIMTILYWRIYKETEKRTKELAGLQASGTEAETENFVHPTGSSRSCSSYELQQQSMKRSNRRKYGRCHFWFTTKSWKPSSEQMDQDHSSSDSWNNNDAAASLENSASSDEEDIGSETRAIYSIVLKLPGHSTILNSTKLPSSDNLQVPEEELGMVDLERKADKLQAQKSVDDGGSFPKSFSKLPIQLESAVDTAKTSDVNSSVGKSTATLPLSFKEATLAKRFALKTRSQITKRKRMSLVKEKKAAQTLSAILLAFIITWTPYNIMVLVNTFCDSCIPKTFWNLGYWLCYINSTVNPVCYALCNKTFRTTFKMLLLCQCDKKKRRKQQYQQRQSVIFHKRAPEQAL

| Ki (M1 [4]) | Ki (M2 [5]) | Ki (M5) | Ki (Sigma1 [6]) | SMILES | Ki (M3) | Ki (M4) | Ki (Sigma1 [1]) | Ki (M1 [2]) | Ki (M2 [3]) |
| --- | --- | --- | --- | --- | --- | --- | --- | --- | --- |
|  |  |  |  | CN(C)CC1CCOC1(c1ccccc1)c1ccccc1 (stereo not drawn) [ANAVEX 2-73] | 5330 nM | 5190 nM | 860 nM | 3320 nM | 3970 nM |
| 1500 nM | 2570 nM | 1160 nM | 230 nM | CN(CCCC1(c2ccc(F)cc2)OCc2cc(C#N)ccc21)C1=NCCCC1 (stereo not drawn) [Example 3, 1-(4-fluorophenyl)-1-{3-[methyl(3,4,5,6-tetrahydropyridin-2-yl)amino]propyl}-1,3-dihydro-2-benzo-furan-5-carbonitrile] |  |  |  |  |  |
